Key:
Rhesus monkeys [1] = experiment: Recovery of twitch response from GW 280430A neuromuscular block with or without cysteine-like antagonist; type: in vivo
Description: (§1) Rhesus monkeys were anesthetized with ketamine (5 mg/Kg) and thiopental (5 mg/Kg) given intramuscularly or intravenously. Anesthesia was maintained with a mixture of halothane (1.5%), nitrous oxide (60%) and oxygen (40%). The common peroneal nerve was stimulated supramaximally with square wave pulses of 0.2 m sec duration at a rate of 0.15 Hz. Twitch contractions were recorded via the tendon of the extensor digitorum muscle.
In all animals, the trachea was intubated and ventilation was controlled at 12-15 ml/kg, 18-24 breaths per minute. A peripheral vein and artery were cannulated for drug administration and for recording or arterial pressure, respectively.
Rhesus monkeys were anesthetized and treated with a halofumarate neuromuscular blocking agent as described in Example 1.
Several tests were generally run (#1, #2, #3, etc.) with time in between each test so that the animal could recover.

Rhesus monkeys [2] = tested on: Rhesus monkeys
Description: as §1, with “ketainine” for “ketamine”
In all animals, the trachea was intubated and ventilation was controlled at 12-15 ml/kg, 18-24 breaths per minute. A peripheral vein and artery were cannulated for drug administration and for recording of arterial pressure, respectively. A dosage of 0.1 mg/kg of the 353044 intermediate duration halofumarate neuromuscular blocking agent was administered intravenously. The 353044 intermediate duration halofumarate neuromuscular blocking agent has the following structure, wherein X is Cl. [drawing 11]
For comparison, 0.5 mg/kg of the ultra-short 280430A halofumarate neuromuscular blocking agent was administered to a separate set of animals. […] Animals that had received the 353044 intermediate duration halofumarate neuromuscular blocking agent, then received a combination of […] 10 mg/kg glutathione.

Rhesus monkeys [3] = settings: GW 280430A-treated animals
[4] = Buck 13.2, Baseline (430A, no cysteine)
[5] = Count 13.1 kg, #3, 0.2 mg/kg 430A alone
[6] = Impy 12.5 kg, #1, 0.05 mg/kg 430A alone
[7] = Impy 12.5 kg, #3, 0.05 mg/kg 430A alone
[8] = Means of Skye, Impy & Count, Baseline (430A, no cysteine)
[9] = Means of Skye, Impy and Buck, Baseline (430A, no cysteine)
[10] = Morgan 12.4 kg, #1, 0.05 mg/kg 430A alone
[11] = Morgan 12.4 kg, #2, 0.01 mg/kg 430A alone
[12] = Skye 11.6 kg, Baseline (430A, no cysteine)
[13] = Skye 12.1 kg, #1, 0.05 mg/kg 430A alone
[14] = Skye 12.1 kg, #3, 0.05 mg/kg 430A alone
[15] = 5 mg/kg antagonist after GW 280430A, FIG. 4, FIG. 5
[16] = #4 (after 3 administrations of 430A), 0.05 mg/kg 430A & cysteine 5 mg/kg
[17] = #4 (after 3 administrations of 430A), 0.05 mg/kg 430A & cysteine 10 mg/kg
[18] = Buck 13.2, 0.2 mg/kg 430A & cysteine 10.0 mg/kg
[19] = Count 13.1 kg, #4, 0.2 mg/kg 430A & cysteine 4 mg/kg
[20] = Impy 12.5 kg, #2, 0.05 mg/kg 430A & cysteine 5 mg/kg
[21] = Means of Skye, Impy & Count, 0.05 mg/kg 430A & cysteine 4 or 5 mg/kg
[22] = Means of Skye, Impy and Buck, 430A & Cysteine 10 mg/kg
[23] = Morgan 12.4 kg, #3, 0.1 mg/kg 430A & cysteine 20 mg/kg
[24] = Skye 11.6 kg, 0.2 mg/kg 430A & cysteine 10.0 mg/kg
[25] = Skye 12.1 kg, #2, 0.05 mg/kg 430A & cysteine 2 mg/kg

## COc1cc2c(cc1OC)[C@H](c1cc(OC)c(OC)c(OC)c1)[N@@+](C)(CCCOC(=O)/C=C(\Cl)C(=O)OCCC[N@+]1(C)CCc3cc(OC)c(OC)cc3[C@H]1Cc1cc(OC)c(OC)c(OC)c1)CC2.[Cl-].[Cl-] [GW 280430A, (Z)-2-Chloro-4-{3-[(1S,2R)-6,7-dimethoxy-2-methyl-1-(3,4,5-trimethoxyphenyl)-1,2,3,4-tetrahydro-2-isoquinolinio]propyl}-1-{3{(1R,2S)-6,7-dimethoxy-2-methyl-1-[(3,4,5-trimethoxyphenyl)methyl]-1,2,3,4-tetrahydro-2-isoquinolinio}propyl}-2-butenedioate dichloride]
Rhesus monkeys [1]; [4]
  25-75% recovery interval: 54 s
  Recovery 5-95%: 114 s
  time to 5% twitch recovery: 12 s
  time to 25% twitch recovery: 48 s
  time to 75% twitch recovery: 102 s
  time to 95% twitch recovery: 126 s
Rhesus monkeys [1]; [5]
  Recovery 5%: 9 s
  Recovery 5-95%: 75 s
  Recovery 25%: 24 s
  Recovery 25-75%: 33 s
  Recovery 75%: 57 s
  Recovery 95%: 84 s
Rhesus monkeys [1]; [6]
  Recovery 5%: 30 s
  Recovery 5-95%: 141 s
  Recovery 25%: 63 s
  Recovery 25-75%: 57 s
  Recovery 75%: 120 s
  Recovery 95%: 171 s
Rhesus monkeys [1]; [7]
  Recovery 75%: 45 s
  Recovery 95%: 78 s
Rhesus monkeys [1]; [8]
  25-75% recovery interval: 75 s
  Recovery 5-95%: 193 s
  time to 5% twitch recovery: 16 s
  time to 25% twitch recovery: 46 s
  time to 75% twitch recovery: 121 s
  time to 95% twitch recovery: 209 s
Rhesus monkeys [1]; [9]
  25-75% recovery interval: 77 s
  Recovery 5-95%: 193 s
  time to 5% twitch recovery: 22 s
  time to 25% twitch recovery: 61 s
  time to 75% twitch recovery: 138 s
  time to 95% twitch recovery: 215 s
Rhesus monkeys [1]; [10]
  Recovery 25%: 40 s
  Recovery 25-75%: 103 s
  Recovery 75%: 143 s
  Recovery 95%: 233 s
Rhesus monkeys [1]; [11]
  Recovery 5%: 30 s
  Recovery 5-95%: 282 s
  Recovery 25%: 42 s
  Recovery 25-75%: 144 s
  Recovery 75%: 186 s
  Recovery 95%: 312 s
Rhesus monkeys [1]; [12]
  25-75% recovery interval: 120 s
  Recovery 5-95%: 324 s
  time to 5% twitch recovery: 24 s
  time to 25% twitch recovery: 72 s
  time to 75% twitch recovery: 192 s
  time to 95% twitch recovery: 348 s
Rhesus monkeys [1]; [13]
  Recovery 5%: 9 s
  Recovery 5-95%: 363 s
  Recovery 25%: 51 s
  Recovery 25-75%: 135 s
  Recovery 75%: 186 s
  Recovery 95%: 372 s
Rhesus monkeys [1]; [14]
  Recovery 25%: 143 s
  Recovery 25-75%: 122 s
  Recovery 75%: 265 s
  Recovery 95%: 368 s
Rhesus monkeys [2]; 0.50 mg/kg GW 280430A + 5 mg/kg cysteine vs 0.10 mg/kg 353044 + cysteine and glutathione, FIG. 9
  speed of recovery compared with 353044, with antagonist: again faster
Rhesus monkeys [2]; 0.50 mg/kg GW 280430A vs 0.10 mg/kg 353044, FIG. 9 solid lines
  speed of recovery compared with 353044, no antagonist: recovered faster

## N[C@@H](CCC(=O)N[C@@H](CS)C(=O)NCC(=O)O)C(=O)O [glutathione]
Rhesus monkeys [1]; [15]
  time to complete reversal of the block in neuromuscular activity after administration: ≤ 140 s

## CC(=O)N[C@@H](CS)C(=O)O [N-acetylcysteine, reference compound]
Rhesus monkeys [1]; [15]
  time to complete reversal of the block in neuromuscular activity after administration: ≤ 165 s

## N[C@@H](CS)C(=O)O [cysteine]
Rhesus monkeys [1]; 5 mg/kg cysteine after GW 280430A, FIG. 3
  time to complete reversal of the block in neuromuscular activity after administration: ≤ 100 s
Rhesus monkeys [1]; [16]
  25-75% recovery interval: 63 s
  Recovery 5-95%: 237 s
  time to 5% twitch recovery: 15 s
  time to 25% twitch recovery: 39 s
  time to 75% twitch recovery: 102 s
  time to 95% twitch recovery: 252 s
Rhesus monkeys [1]; [17]
  25-75% recovery interval: 15 s
  Recovery 5-95%: 96 s
  time to 5% twitch recovery: 18 s
  time to 25% twitch recovery: 51 s
  time to 75% twitch recovery: 66 s
  time to 95% twitch recovery: 114 s
Rhesus monkeys [1]; [18]
  25-75% recovery interval: 2 s
  Recovery 5-95%: 42 s
  time to 5% twitch recovery: 6 s
  time to 25% twitch recovery: 24 s
  time to 75% twitch recovery: 26 s
  time to 95% twitch recovery: 48 s
Rhesus monkeys [1]; [19]
  Recovery 5%: 9 s
  Recovery 5-95%: 27 s
  Recovery 25%: 15 s
  Recovery 25-75%: 15 s
  Recovery 75%: 30 s
  Recovery 95%: 36 s
Rhesus monkeys [1]; [20]
  Recovery 5%: 6 s
  Recovery 5-95%: 90 s
  Recovery 25%: 33 s
  Recovery 25-75%: 15 s
  Recovery 75%: 48 s
  Recovery 95%: 96 s
Rhesus monkeys [1]; [21]
  25-75% recovery interval: 31 s
  time to 5% twitch recovery: 10 s
  time to 25% twitch recovery: 29 s
  time to 75% twitch recovery: 60 s
  time to 95% twitch recovery: 125 s
Rhesus monkeys [1]; [22]
  25-75% recovery interval: 12 s
  Recovery 5-95%: 76 s
  time to 5% twitch recovery: 10 s
  time to 25% twitch recovery: 31 s
  time to 75% twitch recovery: 43 s
  time to 95% twitch recovery: 86 s
Rhesus monkeys [1]; [23]
  Recovery 5%: 24 s
  Recovery 5-95%: 144 s
  Recovery 25%: 42 s
  Recovery 25-75%: 24 s
  Recovery 75%: 66 s
  Recovery 95%: 168 s
Rhesus monkeys [1]; [24]
  25-75% recovery interval: 18 s
  Recovery 5-95%: 90 s
  time to 5% twitch recovery: 6 s
  time to 25% twitch recovery: 18 s
  time to 75% twitch recovery: 36 s
  time to 95% twitch recovery: 96 s
Rhesus monkeys [1]; [25]
  Recovery 5%: 10 s
  Recovery 5-95%: 208 s
  Recovery 25%: 35 s
  Recovery 25-75%: 65 s
  Recovery 75%: 100 s
  Recovery 95%: 218 s
Rhesus monkeys [3]; cysteine 20 mg/kg
  side effects at highest dosage tested: no negative side effects
Rhesus monkeys [3]; cysteine, therapeutic range (5-10 mg/Kg), FIG. 2
  effect on blood pressure or heart rate: no significant affect on blood pressure or heart rate
